By IC50 is commonly meant the concentration that inhibits the measured activity by half. A lower IC50 goes with greater potency in that assay.

Structures are written as SMILES. In brackets after ≈: the same amount, converted by molar mass.

The subject of one assay is MCF7. Description: Cytotoxicity screening, SRB assay, MCF7. Type of assay: cell-based, human. The settings on record: for MCF7 IC50: 48 h; for IC50: Homo sapiens, MCF7, 48 h. How it is done:
(§1) In this study, a panel of cell lines was examined for their chemosensitivity. Different concentrations of the synthesised pyridines and pyrimidine derivatives were used in this study (5, 12.5, 25, and 50 µg/mL) for all the examined cell lines. In this study, breast tumour cell line (MCF7), hepatocellular carcinoma cell line (HEPG2), larynx cell line (HEP2), lung cancer cell line (H460), colon cancer cell line (HCT116 and Caco2), hypopharyngeal cell line (FADU), and normal Vero cell line were applied. The full methodology is described in the Supplementary data (SI 1).
(§2) SI 1: Cytotoxicity screening against human cancer cell lines
(§3) In this study, a panel of cell lines was examined for their chemosensitivity. Different concentrations of the synthesized pyridines and pyrimidines derivatives were used in this study (5, 12.5, 25, and 50 µg/ml) for all the examined cell lines. The most sensitive cell line to the treatment regimen was selected and subjected to further investigations to explore the mechanism of this interaction. Human breast tumor cell line (MCF7), human hepatocellular carcinoma cell line (HEPG2), human larynx cell line (HEP2), human lung cancer cell line (H460), human colon cancer cell line (HCT116 and Caco2), human hypopharyngeal cell line (FaDu), and normal cell line Vero were used in this study. It was obtained from the American Type Culture Collection (ATCC, Minnesota, USA). The tumor cell line was maintained at National Cancer Institute (NCI), Cairo, Egypt.
(§4) The antitumor activities of pyridines and pyrimidines derivatives and all tested cell lines were evaluated by sulphorhodamine-B (SRB) assay 1. Briefly, cells were seeded at a density of 3 × 10^3 cells/well in 96-well microtiter plates. They were left to attach for 24 h before incubation with drugs. Next, cells were treated with different concentrations of 5, 12.5, 25, and 50 µg/ml for MCF7, HEPG2, HEP2, HCT116, Caco2, H460, FaDu, and Vero cells. For each concentration, three wells were used and incubation was continued for 48 h. DMSO was used as a control vehicle (1 % v/v). At the end of incubation, cells were fixed with 20 % trichloroacetic acid and stained with 0.4 % SRB dye. The optical density (O.D.) of each well was measured spectrophotometrically at 570 nm using an ELISA microplate reader (TECAN sunrise™, Germany). The mean survival fraction at each drug concentration was calculated as follows: […]
(§5) O.D. of the treated cells/O.D. of the control cells. The IC50 (concentration that produces 50% of cell growth inhibition) value of each drug was calculated using sigmoidal dose-response curve-fitting models (Graph Pad Prizm software, version 5) 1.
For orientation: The SRB assay estimates cell density from bound dye.

The next assay relates to FADU. Briefly: Cytotoxicity screening, SRB assay, FADU. The assay is classed as cell-based, human. Conditions: 48 h; for IC50: Homo sapiens, FaDu. How it is done:
as §1, §2, §3, §4, §5

A further assay deals with HEP2. Briefly: Cytotoxicity screening, SRB assay, HEP2. The assay is classed as cell-based, human. The settings on record: for HEP2 IC50: 48 h; for IC50: Homo sapiens, HEp-2, 48 h. How it is done: as §1, §2, §3, §4, §5
Another assay relates to HCT116. Briefly: Cytotoxicity screening, SRB assay, HCT116. The assay is classed as cell-based, human. The settings on record: for HCT116 IC50: 48 h; for IC50: Homo sapiens, HCT-116, 48 h. As for the experimental part:
as §1, §2, §3, §4, §5

Assay [1] has as its system MCF7, H460, FADU, HEP2, HEPG2, HCT 116, Caco2, and Vero cells. Description: Oxidative stress assessment (MDA, NO, SOD, GSH). The assay is classed as cell-based. The settings on record: dose IC50, 48 h. How it is done:
Consequently, both compounds 8 and 14 were tested for their antioxidant activity in MCF7, H460, FADU, HEP2, HEPG2, HCT 116, Caco2, and Vero cells, and the dose used was the IC50 in all cell lines.
SI 2: Oxidative stress assessment
SI 2A: Determination of malondialdehyde content (MDA)
Lipid peroxidation products were quantified by measuring MDA level in cell culture lysate of control and treated cells using Lipid Peroxidation (MDA) Assay Kit (Sigma Aldrich Chemical Co., St.
Louis, USA) following the manufacturer’s instructions. The MDA level was calculated relative to the corresponding protein content. The absorbance was determined at 532 nm using a spectrophotometer (Spectronic, Milton Roy Co., USA).
SI 2B: Determination of superoxide dismutase (SOD)
[…] in cell culture lysate of control and treated cells by SOD determination kit (Sigma Aldrich Chemical Co., St. Louis, USA) following the manufacturer’s instructions. SOD level was calculated relative to the corresponding protein content. The absorbance of the supernatant was determined at 450 nm using a spectrophotometer (Spectronic, Milton Roy Co., USA) 2. The experiment was carried out three independent times.
SI 2C: Determination of reduced glutathione (GSH) content
Reduced glutathione was determined by adopting Ellman’s method. MCF7 and LCC2 cells were harvested, the protein was precipitated with trichloroacetic acid, and Ellman’s reagent [5,5-dithiobis-(2-nitrobenzoic acid)] (Sigma Aldrich Chemical Co, St. Louis, USA) was added to the supernatant. The absorbance was read at 405 nm and total SH was calculated as µM of GSH/mg protein 3.
SI 2D: Determination of nitric oxide (NO) content
Nitric oxide was determined in the culture media of the control and treated cells a s described before
4. Briefly, 0.5 ml cold absolute ethanol was added to 250µl culture media then left for 48 h at 4 °C to attain complete protein precipitation followed by centrifugation at 13,000 rpm for 1 h using a cooling centrifuge.
100 μl of nitrate standard solution were serially diluted in duplicate in a 96 -well microplate. Then, 100 μl of vanadium chloride were added to each well rapidly followed by 50 μl sulfanilamide and 50µl n -(1-naphthyl) ethylenediamine in 2 N hydrochloric acid. The absorbance at 540 nm was measured spectrophotometrically using an ELISA microplate reader (TECAN SunriseTM, Germany) following an incubation period of 30 min. The level of total nitrite/nitrate was expressed as µM and determined using […]

With `N#Cc1c(-c2cccs2)cc(-c2ccco2)[nH]c1=O` [Compound 14], in the assay with MCF7, the “MCF7 IC50” value was 3.70 µg/mL and the IC50 turned out to be 7 µg/mL (≈ 26.1 µM). Besides, in the assay with FADU, the “FADU IC50” value amounted to 3.90 µg/mL and half-maximal inhibition (IC50) required 5.7 µg/mL (≈ 21.2 µM). Besides, in the assay on HEP2, the “HEP2 IC50” value came out at 4.70 µg/mL and the concentration for half-maximal inhibition (IC50) was 8 µg/mL (≈ 29.8 µM). Also, in the assay with HCT116, the “HCT116 IC50” value stood at 3.90 µg/mL and the midpoint of inhibition, the IC50, lay at 7.4 µg/mL (≈ 27.6 µM). Moreover, the “effect on oxidative state (MDA, NO, SOD, GSH)” value (shortened to “effect … (MDA, NO, SOD, GSH)”) in assay [1] (FADU and Caco2) is reported as “anti-oxidant effect”. For the same compound, the “effect … (MDA, NO, SOD, GSH)” value in assay [1] (MCF7, H460, HEP2, HEPG2, HCT, and Vero cells) is given as “pro-oxidant effect”.

Regarding `Oc1n[nH]c2nc(-c3ccco3)cc(-c3cccs3)c12` [Compound 8], the “MCF7 IC50” value in the assay on MCF7 worked out at 4.10 µg/mL. The IC50 stood at 3.8 µg/mL (≈ 13.4 µM) in the assay with MCF7, 3.8 µg/mL (≈ 13.4 µM) in the assay with FADU, 4.4 µg/mL (≈ 15.5 µM) in the assay with HEP2 and 4 µg/mL (≈ 14.1 µM) with HCT116. Further, the “FADU IC50” value in the assay on FADU is reported as 5.60 µg/mL. In addition, the “HEP2 IC50” value with HEP2 is listed as 7.90 µg/mL. Further, in the assay on HCT116, the “HCT116 IC50” value was found to be 7.20 µg/mL. The “effect … (MDA, NO, SOD, GSH)” value is recorded as “antioxidant effect” in assay [1] (Caco2) and “pro-oxidant effect” in assay [1] (all tested cell lines except Caco2).

The values are drawn from PMC9635468, “Biological evaluation, docking studies, and in silico ADME prediction of some pyrimidine and pyridine derivatives as potential EGFR^WT and EGFR^T790M inhibitors” (Journal of Enzyme Inhibition and Medicinal Chemistry, 2022).
